Data reported in US20090099237A1, “Methods of treating inflammatory diseases” (Roche Palo Alto LLC, priority 2007, published 2009).
Where two headings read alike, the source gives them in different places.

Experiments:
[1] = target: T1, CK1δ (Homo sapiens, UniProt P48730); experiment: In vitro kinase assay (33P, peptide substrate); format: biochemical
T1 construct: purchased Upstate

[2] = target: T2, CK1ε (Homo sapiens, UniProt P49674); experiment: In vitro kinase assay (33P, peptide substrate); format: biochemical
T2 construct: purchased Invitrogen

[3] = target: T3, BRAF (Homo sapiens, UniProt P15056); experiment: KinomeScan kinase profiling; format: binding; conditions: 10 μM
T3 construct: purchased Ambit Biosciences

[4] = target: T4, BRAF(V600E) (Homo sapiens, UniProt P15056, V600E); experiment: KinomeScan kinase profiling; format: binding; conditions: 10 μM
T4 construct: purchased Ambit Biosciences

[5] = target: T5, CDK5 (Homo sapiens, UniProt Q00535); experiment: KinomeScan kinase profiling; format: binding; conditions: 10 μM
T5 construct: purchased Ambit Biosciences (San Diego, Calif.)

[6] = target: T6, CSNK1E (Homo sapiens, UniProt P49674); experiment: KinomeScan kinase profiling; format: binding; conditions: 10 μM
T6 construct: purchased Ambit Biosciences (San Diego, Calif.)

[7] = target: T7, DAPK2 (Homo sapiens, UniProt Q9UIK4); experiment: KinomeScan kinase profiling; format: binding; conditions: 10 μM
T7 construct: purchased Ambit Biosciences (San Diego, Calif.)

[8] = target: T8, FGFR2 (Homo sapiens, UniProt P21802); experiment: KinomeScan kinase profiling; format: binding; conditions: 10 μM
T8 construct: purchased Ambit Biosciences

[9] = target: p38-alpha (Homo sapiens, UniProt Q16539); experiment: KinomeScan kinase profiling; format: binding; conditions: 10 μM
[10] = target: PHKG1 (Homo sapiens, UniProt Q16816); experiment: KinomeScan kinase profiling; format: binding; conditions: 10 μM
[11] = target: T9, AAK1 (Homo sapiens, UniProt Q2M2I8); experiment: KinomeScan kinase profiling; format: binding; conditions: 10 μM
T9 construct: purchased Ambit Biosciences
Source text: (§1) The selectivity of a given CK1α, CK1α-CK1δ, CK1α-CK1ε or CK1α-CK1δ-CK1ε inhibitor compound can be determined by testing the compound against a panel of known kinases. An example of such a kinase profiling technology is the “KinomeScan” from Ambit Biosciences in which compounds can be screened for their modulatory activities against more than 200 known kinases.

[12] = target: T10, ABL1 (Homo sapiens, UniProt P00519); experiment: KinomeScan kinase profiling; format: binding; conditions: 10 μM
T10 construct: purchased Ambit Biosciences
Source text: as §1

[13] = target: T11, ACK1 (Homo sapiens, UniProt Q07912); experiment: KinomeScan kinase profiling; format: binding; conditions: 10 μM
T11 construct: purchased Ambit Biosciences
Source text: as §1

[14] = target: T12, BLK (Homo sapiens, UniProt P51451); experiment: KinomeScan kinase profiling; format: binding; conditions: 10 μM
T12 construct: purchased Ambit Biosciences
Source text: as §1

[15] = target: T13, CAMK1G (Homo sapiens, UniProt Q96NX5); experiment: KinomeScan kinase profiling; format: binding; conditions: 10 μM
T13 construct: purchased Ambit Biosciences
Source text: as §1

[16] = target: T14, CAMKK1 (Homo sapiens, UniProt Q8N5S9); experiment: KinomeScan kinase profiling; format: binding; conditions: 10 μM
T14 construct: purchased Ambit Biosciences (San Diego, Calif.)
Source text: as §1

[17] = target: T15, CLK4 (Homo sapiens, UniProt Q9HAZ1); experiment: KinomeScan kinase profiling; format: binding; conditions: 10 μM
T15 construct: purchased Ambit Biosciences (San Diego, Calif.)
Source text: as §1

[18] = target: T16, CSK (Homo sapiens, UniProt P41240); experiment: KinomeScan kinase profiling; format: binding; conditions: 10 μM
T16 construct: purchased Ambit Biosciences (San Diego, Calif.)
Source text: as §1

[19] = target: T17, CSNK1G1 (Homo sapiens, UniProt Q9HCP0); experiment: KinomeScan kinase profiling; format: binding; conditions: 10 μM
T17 construct: purchased Ambit Biosciences (San Diego, Calif.)
Source text: as §1

[20] = target: T18, DMPK (Homo sapiens, UniProt Q09013); experiment: KinomeScan kinase profiling; format: binding; conditions: 10 μM
T18 construct: purchased Ambit Biosciences (San Diego, Calif.)
Source text: as §1

[21] = target: T19, EGFR (Homo sapiens, UniProt P00533); experiment: KinomeScan kinase profiling; format: binding; conditions: 10 μM
T19 construct: purchased Ambit Biosciences (San Diego, Calif.)
Source text: as §1

[22] = target: T20, EPHA6 (Homo sapiens, UniProt Q9UF33); experiment: KinomeScan kinase profiling; format: binding; conditions: 10 μM
T20 construct: purchased Ambit Biosciences (San Diego, Calif.)
Source text: as §1

[23] = target: T21, ERK2 (Homo sapiens, UniProt P28482); experiment: KinomeScan kinase profiling; format: binding; conditions: 10 μM
T21 construct: purchased Ambit Biosciences
Source text: as §1

[24] = target: T22, FGFR1 (Homo sapiens, UniProt P11362); experiment: KinomeScan kinase profiling; format: binding; conditions: 10 μM
T22 construct: purchased Ambit Biosciences
Source text: as §1

[25] = target: T23, IGF1R (Homo sapiens, UniProt P08069); experiment: KinomeScan kinase profiling; format: binding; conditions: 10 μM
T23 construct: purchased Ambit Biosciences
Source text: as §1

[26] = target: T24, INSR (Homo sapiens, UniProt P06213); experiment: KinomeScan kinase profiling; format: binding; conditions: 10 μM
T24 construct: purchased Ambit Biosciences
Source text: as §1

[27] = target: T25, ITK (Homo sapiens, UniProt Q08881); experiment: KinomeScan kinase profiling; format: binding; conditions: 10 μM
T25 construct: purchased Ambit Biosciences
Source text: as §1

[28] = target: T26, JNK3 (Homo sapiens, UniProt P53779); experiment: KinomeScan kinase profiling; format: binding; conditions: 10 μM
T26 construct: purchased Ambit Biosciences
Source text: as §1

[29] = target: MAP4K5 (Homo sapiens, UniProt Q9Y4K4); experiment: KinomeScan kinase profiling; format: binding; conditions: 10 μM
Source text: as §1

[30] = target: PDGFRA (Homo sapiens, UniProt P16234); experiment: KinomeScan kinase profiling; format: binding; conditions: 10 μM
Source text: as §1

[31] = target: T27, RAF1 (Homo sapiens, UniProt P04049); experiment: KinomeScan kinase profiling; format: binding; conditions: 10 μM
T27 construct: purchased Ambit Biosciences
Source text: as §1

[32] = target: T28, RPS6KA5 (Homo sapiens, UniProt O75582); experiment: KinomeScan kinase profiling; format: binding; conditions: 10 μM
T28 construct: purchased Ambit Biosciences
Source text: as §1

[33] = target: T29, SLK (Homo sapiens, UniProt Q9H2G2); experiment: KinomeScan kinase profiling; format: binding; conditions: 10 μM
T29 construct: purchased Ambit Biosciences
Source text: as §1

[34] = target: T30, STK11 (Homo sapiens, UniProt Q15831); experiment: KinomeScan kinase profiling; format: binding; conditions: 10 μM
T30 construct: purchased Ambit Biosciences
Source text: as §1

[35] = target: T31, STK17A (Homo sapiens, UniProt Q9UEE5); experiment: KinomeScan kinase profiling; format: binding; conditions: 10 μM
T31 construct: purchased Ambit Biosciences
Source text: as §1

[36] = target: T32, SYK (Homo sapiens, UniProt P43405); experiment: KinomeScan kinase profiling; format: binding; conditions: 10 μM
T32 construct: purchased Ambit Biosciences
Source text: as §1

[37] = target: T33, TIE2 (Homo sapiens, UniProt Q02763); experiment: KinomeScan kinase profiling; format: binding; conditions: 10 μM
T33 construct: purchased Ambit Biosciences
Source text: as §1

[38] = target: T34, TXK (Homo sapiens, UniProt P42681); experiment: KinomeScan kinase profiling; format: binding; conditions: 10 μM
T34 construct: purchased Ambit Biosciences
Source text: as §1

[39] = target: p38-gamma (Homo sapiens, UniProt P53778); experiment: KinomeScan kinase profiling; format: binding; conditions: 10 μM
Source text: as §1

T30 sequence (Q15831 whole entry): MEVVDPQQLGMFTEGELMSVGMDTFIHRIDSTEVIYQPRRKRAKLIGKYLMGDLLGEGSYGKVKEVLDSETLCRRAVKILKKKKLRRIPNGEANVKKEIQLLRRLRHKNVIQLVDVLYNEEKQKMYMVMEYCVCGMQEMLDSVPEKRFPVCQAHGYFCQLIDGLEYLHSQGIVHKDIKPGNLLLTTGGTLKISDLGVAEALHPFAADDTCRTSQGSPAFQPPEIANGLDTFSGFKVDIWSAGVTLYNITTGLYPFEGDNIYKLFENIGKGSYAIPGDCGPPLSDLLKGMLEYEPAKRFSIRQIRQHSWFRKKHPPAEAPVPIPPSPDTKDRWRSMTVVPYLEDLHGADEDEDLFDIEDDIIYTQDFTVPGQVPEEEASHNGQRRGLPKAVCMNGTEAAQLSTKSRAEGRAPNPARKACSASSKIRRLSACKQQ
T31 sequence (Q9UEE5 whole entry): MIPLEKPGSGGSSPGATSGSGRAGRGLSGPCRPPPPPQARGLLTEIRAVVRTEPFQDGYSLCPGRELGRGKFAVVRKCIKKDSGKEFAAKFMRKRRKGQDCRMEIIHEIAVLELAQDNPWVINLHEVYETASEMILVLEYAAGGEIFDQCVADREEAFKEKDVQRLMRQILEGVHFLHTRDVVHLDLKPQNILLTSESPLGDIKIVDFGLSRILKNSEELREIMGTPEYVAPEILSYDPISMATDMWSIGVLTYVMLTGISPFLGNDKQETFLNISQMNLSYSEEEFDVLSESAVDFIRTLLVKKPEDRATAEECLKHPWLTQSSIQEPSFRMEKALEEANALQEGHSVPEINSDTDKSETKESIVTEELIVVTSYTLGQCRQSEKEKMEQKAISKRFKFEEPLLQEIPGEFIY
T10 sequence (P00519 whole entry): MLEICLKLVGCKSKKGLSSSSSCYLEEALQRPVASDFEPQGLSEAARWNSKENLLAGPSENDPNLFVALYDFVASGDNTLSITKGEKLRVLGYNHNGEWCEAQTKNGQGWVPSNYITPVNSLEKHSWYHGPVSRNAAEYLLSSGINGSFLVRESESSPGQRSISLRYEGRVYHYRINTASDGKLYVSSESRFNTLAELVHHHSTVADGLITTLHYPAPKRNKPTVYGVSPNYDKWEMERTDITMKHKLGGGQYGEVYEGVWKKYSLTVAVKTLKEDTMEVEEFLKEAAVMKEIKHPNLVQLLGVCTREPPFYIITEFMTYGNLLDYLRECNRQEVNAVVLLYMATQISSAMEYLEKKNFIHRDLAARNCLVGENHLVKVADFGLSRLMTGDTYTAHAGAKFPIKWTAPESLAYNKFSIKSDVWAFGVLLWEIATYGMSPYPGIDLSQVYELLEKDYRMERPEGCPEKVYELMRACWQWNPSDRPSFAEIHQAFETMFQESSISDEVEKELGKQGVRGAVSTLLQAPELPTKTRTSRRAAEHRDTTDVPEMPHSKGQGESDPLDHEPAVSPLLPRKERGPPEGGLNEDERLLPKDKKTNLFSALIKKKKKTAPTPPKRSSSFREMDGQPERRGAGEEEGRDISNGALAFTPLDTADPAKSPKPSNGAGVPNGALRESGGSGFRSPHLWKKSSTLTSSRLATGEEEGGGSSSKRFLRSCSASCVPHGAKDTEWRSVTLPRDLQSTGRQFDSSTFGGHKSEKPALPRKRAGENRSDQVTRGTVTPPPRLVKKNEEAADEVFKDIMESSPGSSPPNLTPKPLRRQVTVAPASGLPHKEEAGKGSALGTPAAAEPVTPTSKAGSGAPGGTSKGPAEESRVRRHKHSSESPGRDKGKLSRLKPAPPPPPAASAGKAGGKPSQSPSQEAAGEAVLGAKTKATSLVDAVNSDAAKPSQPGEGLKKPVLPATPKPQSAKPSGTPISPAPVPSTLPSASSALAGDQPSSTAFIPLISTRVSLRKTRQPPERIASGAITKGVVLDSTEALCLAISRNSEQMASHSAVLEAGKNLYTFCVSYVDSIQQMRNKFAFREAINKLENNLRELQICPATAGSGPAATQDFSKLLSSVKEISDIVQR
T12 sequence (P51451 whole entry): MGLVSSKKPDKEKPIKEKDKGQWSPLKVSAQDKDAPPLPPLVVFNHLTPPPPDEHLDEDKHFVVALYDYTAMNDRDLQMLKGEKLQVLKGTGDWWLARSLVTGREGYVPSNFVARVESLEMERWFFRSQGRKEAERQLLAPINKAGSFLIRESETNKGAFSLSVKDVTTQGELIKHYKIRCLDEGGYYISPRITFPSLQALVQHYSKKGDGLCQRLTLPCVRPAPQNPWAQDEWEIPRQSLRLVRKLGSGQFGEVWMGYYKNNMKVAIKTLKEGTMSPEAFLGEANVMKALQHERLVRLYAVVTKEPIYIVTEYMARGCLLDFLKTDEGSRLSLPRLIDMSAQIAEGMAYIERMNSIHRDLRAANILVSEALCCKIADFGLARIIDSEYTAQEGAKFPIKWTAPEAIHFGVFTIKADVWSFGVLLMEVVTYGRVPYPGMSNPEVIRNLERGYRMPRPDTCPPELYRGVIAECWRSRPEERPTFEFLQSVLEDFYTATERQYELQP
T6 sequence (P49674 whole entry): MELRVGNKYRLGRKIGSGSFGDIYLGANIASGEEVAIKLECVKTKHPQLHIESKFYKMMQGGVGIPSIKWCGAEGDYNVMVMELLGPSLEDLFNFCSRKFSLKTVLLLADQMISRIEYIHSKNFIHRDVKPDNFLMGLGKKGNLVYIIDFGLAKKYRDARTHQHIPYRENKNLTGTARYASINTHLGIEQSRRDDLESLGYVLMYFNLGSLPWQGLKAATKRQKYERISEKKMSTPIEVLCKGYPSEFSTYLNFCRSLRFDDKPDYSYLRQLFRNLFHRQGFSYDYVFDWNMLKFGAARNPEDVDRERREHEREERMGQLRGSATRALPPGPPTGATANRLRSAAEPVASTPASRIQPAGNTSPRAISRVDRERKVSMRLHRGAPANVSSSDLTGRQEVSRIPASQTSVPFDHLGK
T2 sequence (P49674 whole entry): as above
T4 sequence (P15056 whole entry V600E): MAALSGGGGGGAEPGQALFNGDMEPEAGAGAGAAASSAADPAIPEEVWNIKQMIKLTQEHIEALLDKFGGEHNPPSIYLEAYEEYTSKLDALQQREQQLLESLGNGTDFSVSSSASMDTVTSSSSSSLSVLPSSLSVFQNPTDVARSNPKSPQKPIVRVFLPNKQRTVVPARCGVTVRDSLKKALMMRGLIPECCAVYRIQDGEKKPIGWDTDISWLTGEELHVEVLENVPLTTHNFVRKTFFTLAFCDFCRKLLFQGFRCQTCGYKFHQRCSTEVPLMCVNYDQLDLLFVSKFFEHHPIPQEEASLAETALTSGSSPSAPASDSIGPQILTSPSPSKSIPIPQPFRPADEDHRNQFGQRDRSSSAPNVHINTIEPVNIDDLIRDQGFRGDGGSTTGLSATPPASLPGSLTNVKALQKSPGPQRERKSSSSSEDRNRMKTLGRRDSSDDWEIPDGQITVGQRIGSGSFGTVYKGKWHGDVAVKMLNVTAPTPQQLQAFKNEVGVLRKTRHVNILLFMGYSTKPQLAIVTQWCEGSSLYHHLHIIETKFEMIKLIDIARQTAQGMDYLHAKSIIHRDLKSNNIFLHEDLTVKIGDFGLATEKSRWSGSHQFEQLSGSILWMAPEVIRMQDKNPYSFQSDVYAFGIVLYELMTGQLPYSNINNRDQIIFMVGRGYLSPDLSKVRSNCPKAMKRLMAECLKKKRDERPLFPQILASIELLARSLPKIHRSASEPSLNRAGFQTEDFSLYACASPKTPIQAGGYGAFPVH
T28 sequence (O75582 whole entry): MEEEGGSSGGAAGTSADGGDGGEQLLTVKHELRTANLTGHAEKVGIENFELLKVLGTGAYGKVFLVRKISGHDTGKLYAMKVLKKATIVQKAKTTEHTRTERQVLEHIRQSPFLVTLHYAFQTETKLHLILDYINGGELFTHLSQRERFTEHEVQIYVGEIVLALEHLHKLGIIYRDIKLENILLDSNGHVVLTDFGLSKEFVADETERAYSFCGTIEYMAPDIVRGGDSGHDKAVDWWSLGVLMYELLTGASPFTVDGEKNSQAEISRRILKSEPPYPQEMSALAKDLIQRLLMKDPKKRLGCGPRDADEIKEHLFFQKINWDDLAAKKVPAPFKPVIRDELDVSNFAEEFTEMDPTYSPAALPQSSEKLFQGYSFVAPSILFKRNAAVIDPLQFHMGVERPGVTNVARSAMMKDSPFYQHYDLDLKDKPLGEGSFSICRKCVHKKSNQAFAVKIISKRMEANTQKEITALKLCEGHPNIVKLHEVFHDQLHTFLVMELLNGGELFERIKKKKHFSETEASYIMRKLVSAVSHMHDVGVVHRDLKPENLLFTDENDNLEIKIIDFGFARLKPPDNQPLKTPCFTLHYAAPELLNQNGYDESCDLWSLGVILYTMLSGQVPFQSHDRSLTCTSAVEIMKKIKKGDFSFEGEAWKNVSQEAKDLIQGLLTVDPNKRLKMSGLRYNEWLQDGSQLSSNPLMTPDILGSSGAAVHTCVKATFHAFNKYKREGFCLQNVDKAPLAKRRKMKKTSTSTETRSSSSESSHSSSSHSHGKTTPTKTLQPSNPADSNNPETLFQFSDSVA
T34 sequence (P42681 whole entry): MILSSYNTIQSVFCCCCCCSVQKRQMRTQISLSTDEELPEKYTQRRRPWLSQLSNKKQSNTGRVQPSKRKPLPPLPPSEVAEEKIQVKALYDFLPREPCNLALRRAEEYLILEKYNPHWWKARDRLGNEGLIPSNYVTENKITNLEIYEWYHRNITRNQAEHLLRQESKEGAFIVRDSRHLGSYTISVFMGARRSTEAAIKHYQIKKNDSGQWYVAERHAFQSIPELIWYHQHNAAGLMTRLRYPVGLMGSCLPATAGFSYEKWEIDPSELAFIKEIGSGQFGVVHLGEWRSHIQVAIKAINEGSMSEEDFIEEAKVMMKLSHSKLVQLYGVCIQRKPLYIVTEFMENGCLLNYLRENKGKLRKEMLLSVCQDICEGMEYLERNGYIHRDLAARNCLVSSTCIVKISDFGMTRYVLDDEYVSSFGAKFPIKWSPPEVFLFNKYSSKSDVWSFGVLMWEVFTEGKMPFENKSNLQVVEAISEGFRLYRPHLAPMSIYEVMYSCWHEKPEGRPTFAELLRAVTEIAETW

NC(=O)c1cc(-c2ccncc2)c[nH]1 [Compound A, 4-Pyridin-4-yl-1H-pyrrole-2-carboxylic acid amide]
IC50 ([1]; CK1δ, 50 μM ATP, read-out: IC50): 7.57 µM
IC50 ([2]; CK1ε, 50 μM ATP, read-out: IC50): 17.3 µM
% Binding [3]: <50%
% Binding [4]: <50%
% Binding [5]: <50%
% Binding [6]: 94%
% Binding [7]: <50%
% Binding [8]: <50%
% Binding [9]: <50%
% Binding [10]: <50%
% Binding [11]: 69%
% Binding [12]: <50%
% Binding [13]: <50%
% Binding [14]: <50%
% Binding [15]: <50%
% Binding [16]: <50%
% Binding [17]: 97%
% Binding [18]: <50%
% Binding [19]: <50%
% Binding [20]: <50%
% Binding [21]: <50%
% Binding [22]: <50%
% Binding [23]: <50%
% Binding [24]: <50%
% Binding [25]: <50%
% Binding [26]: <50%
% Binding [27]: <50%
% Binding [28]: <50%
% Binding [29]: <50%
% Binding [30]: <50%
% Binding [31]: <50%
% Binding [32]: <50%
% Binding [33]: <50%
% Binding [34]: <50%
% Binding [35]: 98%
% Binding [36]: <50%
% Binding [37]: <50%
% Binding [38]: <50%
% Binding [39]: <50%

COc1cc(OC)c(C=C2C(O)=Nc3ccccc32)c(OC)c1 [IC261, 3-[(2,4,6-trimethoxyphenyl)methylidenyl]-indolin-2-one]
IC50 [1]: 1.5 µM
IC50 [2]: 5.97 µM
% Binding [3]: <50%
% Binding [4]: <50%
% Binding [5]: <50%
% Binding [6]: 100%
% Binding [7]: <50%
% Binding [8]: <50%
% Binding [9]: <50%
% Binding [10]: <50%
% Binding [11]: <50%
% Binding [12]: <50%
% Binding [13]: <50%
% Binding [14]: <50%
% Binding [15]: <50%
% Binding [16]: <50%
% Binding [17]: <50%
% Binding [18]: <50%
% Binding [19]: <50%
% Binding [20]: <50%
% Binding [21]: <50%
% Binding [22]: <50%
% Binding [23]: <50%
% Binding [24]: <50%
% Binding [25]: <50%
% Binding [26]: <50%
% Binding [27]: <50%
% Binding [28]: <50%
% Binding [29]: <50%
% Binding [30]: <50%
% Binding [31]: <50%
% Binding [32]: <50%
% Binding [33]: <50%
% Binding [34]: <50%
% Binding [35]: <50%
% Binding [36]: <50%
% Binding [37]: <50%
% Binding [38]: <50%
% Binding [39]: <50%
